Reference: patent US20080200564A1, “Copolymers Based on N-Vinylpyrrolidone and Branched Aliphatic Carbonxylic Acids, and Their Use as Solubilizers” (BASF Aktiengesellschaft, priority 2005, published 2008)

Assay: Preparation of solubilizates: content of solubilized active ingredient, measured photometrically
Format: physicochemical
Conditions: pH 7
Description: 2 g of the copolymer were weighed into a beaker. Then, one medicament in each case was weighed into the mixture as follows in order to obtain a supersaturated solution. (If the weighed-in mass dissolved in the medium, the initial weight was increased until a sediment formed). […] Phosphate buffer pH 7.0 was then added until solubilizer and phosphate buffer were present in the weight ratio 1:9. […] There then followed a resting time of at least one hour. Following filtration of the mixture, it was measured photometrically and the content of active ingredient was determined.

Substance	content of solubilized active ingredient, Carbamazepine [g/100 ml]	content of solubilized active ingredient, Piroxicam [g/100 ml]
copolymers of N-vinylpyrrolidone/N-vinylcaprolactam/VEOVA 10 (weight ratio 70/20/10) [Example 4]	0.21	0.50
copolymers of N-vinylpyrrolidone/VEOVA 9 (weight ratio 80/20) [Example 2]	0.17	0.54
copolymers of N-vinylpyrrolidone/VEOVA 9 (weight ratio 90/10) [Example 3]	0.19	0.48
